Legend:
[1] = Ratio of drug concentration in brain to plasma in C57BL/6 mouse at 30 mg/kg, po measured at 24 hrs; format: ADME, organism-based; conditions: brain and plasma, read-out: BPR
[2] = target: Phosphatidylinositol 4,5-bisphosphate 3-kinase catalytic subunit beta isoform (Homo sapiens, UniProt P42338); test: Inhibition of PI3Kbeta (unknown origin)
[3] = target: T1, Phosphatidylinositol 4,5-bisphosphate 3-kinase catalytic subunit delta isoform (Homo sapiens, UniProt O00329); test: Inhibition of PI3Kdelta (unknown origin)
T1 sequence (O00329 whole entry): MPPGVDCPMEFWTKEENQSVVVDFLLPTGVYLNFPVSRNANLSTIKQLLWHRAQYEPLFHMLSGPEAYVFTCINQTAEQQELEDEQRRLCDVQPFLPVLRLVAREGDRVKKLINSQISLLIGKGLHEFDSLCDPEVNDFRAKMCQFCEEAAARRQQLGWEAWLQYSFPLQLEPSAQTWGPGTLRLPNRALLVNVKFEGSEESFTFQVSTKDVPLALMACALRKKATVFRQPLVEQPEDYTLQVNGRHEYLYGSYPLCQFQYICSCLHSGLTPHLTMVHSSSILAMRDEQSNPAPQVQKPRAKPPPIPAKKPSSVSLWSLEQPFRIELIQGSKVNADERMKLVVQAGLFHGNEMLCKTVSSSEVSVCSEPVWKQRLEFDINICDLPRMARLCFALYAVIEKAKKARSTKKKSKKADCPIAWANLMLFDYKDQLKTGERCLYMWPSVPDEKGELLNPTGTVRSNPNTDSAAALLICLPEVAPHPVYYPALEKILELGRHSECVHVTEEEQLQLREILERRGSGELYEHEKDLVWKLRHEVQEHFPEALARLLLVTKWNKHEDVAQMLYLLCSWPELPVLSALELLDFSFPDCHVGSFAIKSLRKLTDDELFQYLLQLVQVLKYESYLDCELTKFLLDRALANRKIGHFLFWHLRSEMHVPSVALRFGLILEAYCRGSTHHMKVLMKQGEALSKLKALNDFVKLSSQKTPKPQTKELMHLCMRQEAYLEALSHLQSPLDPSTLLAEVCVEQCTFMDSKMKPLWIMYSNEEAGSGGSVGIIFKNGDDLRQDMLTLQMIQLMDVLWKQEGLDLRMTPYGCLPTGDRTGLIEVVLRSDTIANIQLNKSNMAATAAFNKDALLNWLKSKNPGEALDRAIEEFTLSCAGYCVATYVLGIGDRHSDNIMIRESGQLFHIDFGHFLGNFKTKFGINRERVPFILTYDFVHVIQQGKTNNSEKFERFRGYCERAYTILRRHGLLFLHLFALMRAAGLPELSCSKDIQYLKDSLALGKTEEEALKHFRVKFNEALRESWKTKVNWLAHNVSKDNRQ

Cytochrome P450 2C9 = Cytochrome P450 2C9 (Homo sapiens, UniProt P11712); test: Inhibition of CYP2C9 (unknown origin); format: ADME
Chain of Cytochrome P450 2C9 (P11712 whole entry): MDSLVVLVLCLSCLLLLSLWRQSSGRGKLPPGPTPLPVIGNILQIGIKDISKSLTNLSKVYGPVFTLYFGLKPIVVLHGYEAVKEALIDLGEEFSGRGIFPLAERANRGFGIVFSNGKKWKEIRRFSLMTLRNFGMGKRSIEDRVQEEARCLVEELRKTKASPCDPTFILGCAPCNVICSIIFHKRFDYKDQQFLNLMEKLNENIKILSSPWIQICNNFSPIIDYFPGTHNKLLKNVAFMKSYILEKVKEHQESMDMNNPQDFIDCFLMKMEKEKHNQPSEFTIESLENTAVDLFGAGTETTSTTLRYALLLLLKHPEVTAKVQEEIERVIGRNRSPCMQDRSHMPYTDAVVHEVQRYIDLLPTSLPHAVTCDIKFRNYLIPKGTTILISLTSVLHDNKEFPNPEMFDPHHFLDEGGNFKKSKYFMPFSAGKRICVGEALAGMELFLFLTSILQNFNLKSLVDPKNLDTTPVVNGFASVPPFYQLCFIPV

Cytochrome P450 3A4 = Cytochrome P450 3A4 (Homo sapiens, UniProt P08684); test: Inhibition of CYP3A4 (unknown origin) assessed as Kobs; format: ADME
Chain of Cytochrome P450 3A4 (P08684 whole entry): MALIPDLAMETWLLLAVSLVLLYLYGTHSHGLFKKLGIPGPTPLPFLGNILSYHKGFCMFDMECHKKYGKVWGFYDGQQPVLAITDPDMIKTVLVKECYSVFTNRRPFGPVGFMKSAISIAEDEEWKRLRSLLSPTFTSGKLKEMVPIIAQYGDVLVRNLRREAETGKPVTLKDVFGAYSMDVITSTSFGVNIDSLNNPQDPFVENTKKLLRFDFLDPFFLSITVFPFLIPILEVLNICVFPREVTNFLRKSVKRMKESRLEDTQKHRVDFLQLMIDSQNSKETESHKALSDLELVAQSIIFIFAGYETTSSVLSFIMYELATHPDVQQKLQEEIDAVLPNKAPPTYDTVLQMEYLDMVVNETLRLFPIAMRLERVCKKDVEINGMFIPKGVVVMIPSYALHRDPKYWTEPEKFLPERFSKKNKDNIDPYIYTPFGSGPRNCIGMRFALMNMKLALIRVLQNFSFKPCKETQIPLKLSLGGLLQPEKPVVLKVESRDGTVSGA

[4] = Metabolic stability in mouse liver microsomes assessed as intrinsic clearance at 1 uM incubated for 30 mins in presence of NADPH by LC-MS/MS analysis; format: ADME, Microsome; conditions: read-out: CLH
[5] = Metabolic stability in dog liver microsomes assessed as intrinsic clearance at 1 uM incubated for 30 mins in presence of NADPH by LC-MS/MS analysis; format: ADME, Canis lupus familiaris, Microsome; conditions: read-out: CLH
[6] = Metabolic stability in cynomolgus monkey liver microsomes assessed as intrinsic clearance at 1 uM incubated for 30 mins in presence of NADPH by LC-MS/MS analysis; format: ADME, Macaca fascicularis, Microsome; conditions: read-out: CLH
[7] = Efflux ratio of apparent permeability across basolateral to apical side over apical to basolateral side in MDCK-MDR1 cells; format: ADME, cell-based, Canis lupus familiaris; conditions: dog
[8] = target: Serine/threonine-protein kinase ATR (Homo sapiens, UniProt Q13535); test: Inhibition of ATR (unknown origin)-driven CHK1 phosphorylation
Chain of Serine/threonine-protein kinase ATR (Q13535 whole entry): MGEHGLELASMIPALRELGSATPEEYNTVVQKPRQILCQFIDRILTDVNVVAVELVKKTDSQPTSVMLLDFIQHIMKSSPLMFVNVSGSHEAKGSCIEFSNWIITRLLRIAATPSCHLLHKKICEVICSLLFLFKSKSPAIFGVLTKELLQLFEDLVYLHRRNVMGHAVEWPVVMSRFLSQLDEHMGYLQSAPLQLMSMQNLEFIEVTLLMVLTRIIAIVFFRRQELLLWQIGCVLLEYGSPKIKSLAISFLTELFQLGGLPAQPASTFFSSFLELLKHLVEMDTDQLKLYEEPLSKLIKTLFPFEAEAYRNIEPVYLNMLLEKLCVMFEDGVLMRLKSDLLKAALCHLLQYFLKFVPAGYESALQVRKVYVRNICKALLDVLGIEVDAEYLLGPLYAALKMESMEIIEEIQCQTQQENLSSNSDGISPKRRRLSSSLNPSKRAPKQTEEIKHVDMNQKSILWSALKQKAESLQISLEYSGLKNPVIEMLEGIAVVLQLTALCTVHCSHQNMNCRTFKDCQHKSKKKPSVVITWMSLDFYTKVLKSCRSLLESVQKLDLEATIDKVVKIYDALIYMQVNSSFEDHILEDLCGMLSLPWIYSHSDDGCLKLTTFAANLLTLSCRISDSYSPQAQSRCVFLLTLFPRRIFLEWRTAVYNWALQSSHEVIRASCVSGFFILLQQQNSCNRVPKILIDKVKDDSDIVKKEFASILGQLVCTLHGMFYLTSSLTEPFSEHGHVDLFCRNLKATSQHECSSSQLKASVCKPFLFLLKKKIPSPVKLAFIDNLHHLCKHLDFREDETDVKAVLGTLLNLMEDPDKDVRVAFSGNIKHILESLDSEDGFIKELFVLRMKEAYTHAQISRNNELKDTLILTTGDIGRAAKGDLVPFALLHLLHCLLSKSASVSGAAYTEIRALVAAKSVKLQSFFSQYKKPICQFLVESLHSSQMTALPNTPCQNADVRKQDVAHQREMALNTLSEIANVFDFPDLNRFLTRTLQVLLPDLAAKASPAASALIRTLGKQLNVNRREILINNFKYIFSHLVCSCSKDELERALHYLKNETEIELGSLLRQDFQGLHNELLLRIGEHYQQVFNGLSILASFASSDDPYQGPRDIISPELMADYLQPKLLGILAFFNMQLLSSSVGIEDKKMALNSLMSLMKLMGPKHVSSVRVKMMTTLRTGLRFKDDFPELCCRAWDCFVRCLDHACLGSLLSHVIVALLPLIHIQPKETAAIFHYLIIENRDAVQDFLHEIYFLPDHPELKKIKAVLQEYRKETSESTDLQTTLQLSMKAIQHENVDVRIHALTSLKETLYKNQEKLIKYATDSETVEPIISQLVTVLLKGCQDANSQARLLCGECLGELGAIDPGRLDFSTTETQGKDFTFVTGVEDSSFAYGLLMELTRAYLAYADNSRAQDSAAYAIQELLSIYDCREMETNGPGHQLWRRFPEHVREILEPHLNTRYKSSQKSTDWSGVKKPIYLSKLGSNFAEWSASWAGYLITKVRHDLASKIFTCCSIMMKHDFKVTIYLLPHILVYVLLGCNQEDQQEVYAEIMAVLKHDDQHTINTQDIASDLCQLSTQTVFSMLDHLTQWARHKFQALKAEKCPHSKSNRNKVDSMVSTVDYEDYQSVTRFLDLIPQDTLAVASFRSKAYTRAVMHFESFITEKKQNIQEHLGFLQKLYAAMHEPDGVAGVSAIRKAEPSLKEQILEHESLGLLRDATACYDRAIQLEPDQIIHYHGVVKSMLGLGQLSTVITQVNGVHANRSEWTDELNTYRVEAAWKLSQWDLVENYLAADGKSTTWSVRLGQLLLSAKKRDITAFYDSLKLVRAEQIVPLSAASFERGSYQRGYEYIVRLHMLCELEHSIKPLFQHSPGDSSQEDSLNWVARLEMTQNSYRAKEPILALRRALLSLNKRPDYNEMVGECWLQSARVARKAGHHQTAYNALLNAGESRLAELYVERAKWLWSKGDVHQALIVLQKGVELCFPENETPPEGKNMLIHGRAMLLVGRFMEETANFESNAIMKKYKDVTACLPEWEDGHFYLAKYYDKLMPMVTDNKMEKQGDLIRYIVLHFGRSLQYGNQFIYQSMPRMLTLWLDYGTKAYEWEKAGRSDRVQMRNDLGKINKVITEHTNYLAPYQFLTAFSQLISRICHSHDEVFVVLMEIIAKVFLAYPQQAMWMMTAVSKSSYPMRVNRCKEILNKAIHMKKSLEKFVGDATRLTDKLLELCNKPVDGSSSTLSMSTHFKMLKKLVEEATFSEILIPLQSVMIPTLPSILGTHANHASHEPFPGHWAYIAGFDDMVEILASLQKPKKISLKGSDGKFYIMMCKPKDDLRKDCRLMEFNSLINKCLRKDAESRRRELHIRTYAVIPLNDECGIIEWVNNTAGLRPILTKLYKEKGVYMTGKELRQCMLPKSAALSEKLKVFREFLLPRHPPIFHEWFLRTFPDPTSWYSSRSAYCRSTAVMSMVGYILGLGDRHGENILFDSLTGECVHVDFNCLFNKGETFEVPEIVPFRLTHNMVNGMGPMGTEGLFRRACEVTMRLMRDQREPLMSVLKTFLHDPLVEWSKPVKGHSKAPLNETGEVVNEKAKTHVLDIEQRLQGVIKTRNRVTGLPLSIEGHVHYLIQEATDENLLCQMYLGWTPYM

[9] = Phototoxicity against mouse BALB/3T3 clone A31 cells assessed as reduction in cell viability incubated for 1 hr followed by irradiated with 5 J/cm^2 of light dose measured after 24 hrs by neutral red uptake assay; format: toxicity, cell-based; conditions: balb/3t3 clone a31, 1 h
[10] = Genotoxicity in human TK6 cells assessed as micronuclei formation in presence of S9 fraction by micronucleus test; format: toxicity, subcellular
[11] = Genotoxicity in human TK6 cells assessed as micronuclei formation in absence of S9 fraction by micronucleus test; format: toxicity, cell-based
[12] = AUC(0 to t) in Sprague-Dawley rat at 3 mg/kg, po measured upto 24 hrs by HPLC-MS analysis; format: ADME, organism-based; parameters: dose 3 mg/kg, time < 24 hrs, route po; conditions: in vivo
[13] = Cmax in Sprague-Dawley rat at 3 mg/kg, po measured upto 24 hrs by HPLC-MS analysis; format: ADME, organism-based; parameters: dose 3 mg/kg, time < 24 hrs, route po; conditions: in vivo
[14] = Cmax in po dosed C57BL/6 mouse measured upto 24 hrs by HPLC-MS analysis; format: ADME, organism-based; parameters: time < 24 hrs, route po; conditions: in vivo
[15] = Tmax in C57BL/6 mouse at 1 mg/kg, iv and 3 mg/kg, ip measured upto 24 hrs by HPLC-MS analysis; format: ADME, organism-based; conditions: in vivo
[16] = Bioavailability in Sprague-Dawley rat at 3 mg/kg, po and 1 mg/kg, iv measured upto 24 hrs by HPLC-MS analysis; format: ADME, organism-based; conditions: in vivo
[17] = Ratio of drug concentration in brain to plasma in Sprague-Dawley rat at 1 mg/kg, iv measured at 1 hr by HPLC-MS analysis; format: ADME, organism-based; conditions: brain and plasma, read-out: BPR
[18] = Ratio of drug concentration in brain to plasma in Sprague-Dawley rat at 3 mg/kg, po measured at 1 hr by HPLC-MS analysis; format: ADME, organism-based; conditions: brain and plasma, read-out: BPR
[19] = Plasma protein binding in C57BL/6 mouse plasma at 5 uM measured for 4 hrs by equilibrium dialysis method based LC/MS/MS analysis; format: ADME, cell-free; conditions: read-out: PPB (converted)
[20] = Drug concentration in C57BL/6 mouse plasma at 10 mg/kg, po measured after 1 hr; format: ADME, organism-based
[21] = Ratio of drug concentration in brain to plasma in C57BL/6 mouse at 30 mg/kg, po measured at 1 hr; format: ADME, organism-based; conditions: brain and plasma, read-out: BPR
[22] = Drug concentration in C57BL/6 mouse brain at 30 mg/kg, po measured after 3 hrs; format: ADME, organism-based; conditions: read-out: Ct
[23] = Drug concentration in C57BL/6 mouse plasma at 30 mg/kg, po measured after 3 hrs; format: ADME, organism-based
[24] = Ratio of drug concentration in brain to plasma in C57BL/6 mouse at 10 mg/kg, po measured at 3 hrs; format: ADME, organism-based; conditions: read-out: BPR
[25] = Ratio of drug concentration in brain to plasma in C57BL/6 mouse at 3 mg/kg, po measured at 1 hr; format: ADME, organism-based; conditions: read-out: BPR
[26] = Drug concentration in C57BL/6 mouse brain at 10 mg/kg, po measured after 24 hrs; format: ADME, organism-based; conditions: read-out: Ct
[27] = Bioavailability in cynomolgus monkey at 1 mg/kg, po and 0.1 mg/kg, iv measured upto 24 hrs by LC/MS/MS analysis; format: ADME, organism-based, Macaca fascicularis; conditions: in vivo
[28] = Volume of distribution at steady state in cynomolgus monkey at 1 mg/kg, po and 0.1 mg/kg, iv measured upto 24 hrs by LC/MS/MS analysis; format: ADME, organism-based, Macaca fascicularis; conditions: in vivo

Chain of Phosphatidylinositol 4,5-bisphosphate 3-kinase catalytic subunit beta isoform (P42338 whole entry, canonical isoform): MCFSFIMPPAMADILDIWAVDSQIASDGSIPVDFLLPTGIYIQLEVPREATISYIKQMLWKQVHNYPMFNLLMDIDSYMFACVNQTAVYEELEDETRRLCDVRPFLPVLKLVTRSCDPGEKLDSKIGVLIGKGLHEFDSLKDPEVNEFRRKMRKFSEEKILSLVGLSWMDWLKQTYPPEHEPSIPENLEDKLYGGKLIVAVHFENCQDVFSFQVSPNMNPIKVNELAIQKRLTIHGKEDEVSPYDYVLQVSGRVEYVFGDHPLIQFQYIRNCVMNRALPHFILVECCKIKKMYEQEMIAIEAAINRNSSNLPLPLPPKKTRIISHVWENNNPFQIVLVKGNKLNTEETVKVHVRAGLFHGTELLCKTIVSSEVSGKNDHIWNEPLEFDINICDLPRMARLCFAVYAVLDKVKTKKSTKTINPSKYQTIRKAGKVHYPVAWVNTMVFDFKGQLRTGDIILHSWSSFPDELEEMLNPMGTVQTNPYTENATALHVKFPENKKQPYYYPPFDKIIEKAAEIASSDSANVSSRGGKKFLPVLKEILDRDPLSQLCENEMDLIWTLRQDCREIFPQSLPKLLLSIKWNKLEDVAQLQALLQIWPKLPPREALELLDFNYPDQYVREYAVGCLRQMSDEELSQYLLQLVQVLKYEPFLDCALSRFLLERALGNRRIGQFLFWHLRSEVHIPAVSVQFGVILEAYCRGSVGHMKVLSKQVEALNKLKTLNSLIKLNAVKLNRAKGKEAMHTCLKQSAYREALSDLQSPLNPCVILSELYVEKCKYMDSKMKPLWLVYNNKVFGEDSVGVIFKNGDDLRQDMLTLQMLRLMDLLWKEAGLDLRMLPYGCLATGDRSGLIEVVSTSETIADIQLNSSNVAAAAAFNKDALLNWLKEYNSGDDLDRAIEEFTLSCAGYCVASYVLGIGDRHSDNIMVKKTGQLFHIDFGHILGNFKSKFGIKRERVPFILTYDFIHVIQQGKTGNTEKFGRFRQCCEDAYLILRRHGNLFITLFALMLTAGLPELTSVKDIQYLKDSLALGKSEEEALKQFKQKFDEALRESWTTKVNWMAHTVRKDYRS

C[C@@H]1COCCN1c1cc(N2CCOC[C@@H]2C)nc2[nH]c(-c3cscn3)nc12
Kp at 24 h [1]: 0.66 | IC50 [2]: > 10 µM | IC50 [3]: > 10 µM | IC50 (Cytochrome P450 2C9): > 50 µM | Kobs (Cytochrome P450 3A4): 0.021 min⁻¹ | microsomal CLint at 1 µM [4]: 13 µL/min/mg | microsomal CLint at 1 µM [5]: 10 µL/min/mg | microsomal CLint at 1 µM [6]: 31 µL/min/mg | efflux ratio [7]: 0.87 | IC50 [8]: 14.4 µM | Activity [9]: Toxic | Activity [10]: Non-Toxic | Activity [11]: Non-Toxic | AUC(0-t) at 24 h [12]: 6.45 µM·h | Cmax [13]: 1730 nM | Cmax [14]: 1920 nM | Tmax [15]: 90 min | bioavailability [16]: 107% | Kp at 1 h [17]: 0.35 | Kp at 1 h [18]: 0.33 | fraction unbound at 4 h, 5 µM [19]: 0.068 | concentration at 1 h [20]: 4420 nM | Kp at 1 h [21]: 1.29 | concentration at 3 h [22]: 6320 nM | concentration at 3 h [23]: 8420 nM | Kp at 3 h [24]: 0.59 | Kp at 1 h [25]: 0.51 | concentration at 24 h [26]: 130 nM | bioavailability [27]: 110% | Vdss [28]: 3 L/kg

C[C@@H]1COCCN1c1cc(N2CCOC[C@@H]2C)nc2[nH]c(-c3ccccn3)nc12
Kp at 24 h [1]: 0.7 | IC50 [2]: > 10 µM | IC50 [3]: > 10 µM | IC50 (Cytochrome P450 2C9): > 50 µM | Kobs (Cytochrome P450 3A4): 0.032 min⁻¹ | microsomal CLint at 1 µM [4]: 24 µL/min/mg | microsomal CLint at 1 µM [5]: 19 µL/min/mg | microsomal CLint at 1 µM [6]: 115 µL/min/mg | efflux ratio [7]: 0.48 | IC50 [8]: 17.2 µM | Activity [9]: Non-Toxic | Activity [10]: Non-Toxic | Activity [11]: Non-Toxic | AUC(0-t) at 24 h [12]: 29.6 µM·h | Cmax [13]: 5050 nM | Cmax [14]: 1260 nM | Tmax [15]: 24 min | bioavailability [16]: 122% | Kp at 1 h [17]: 0.48 | Kp at 1 h [18]: 0.72 | fraction unbound at 4 h, 5 µM [19]: 0.065 | concentration at 1 h [20]: 2480 nM | Kp at 1 h [21]: 1.03 | concentration at 3 h [22]: 2720 nM | concentration at 3 h [23]: 4160 nM | Kp at 3 h [24]: 0.51
